System: 16S RNA versus modified 16S RNA (5IU1495)
Assay: Dissociation rate of binary ligand complexes versus relative energy (capillary exit-skimmer voltage), ESI-FT-ICR MS
Assay type: binding, E. coli
Conditions: Example 8: 2-deoxystreptamine 100 μM, RNAs 2.5 μM each
Procedure: The following examples illustrate preferred embodiments of the present invention using mass spectrometry. Experiments were performed using a 7.0 Tesla Fourier transform ion cyclotron resonance (FT-ICR) mass spectrometer with an electrospray ionization source operating in the negative mode. A −3000 V difference was employed between the spray tip and the inlet capillary to generate the electrospray. Samples were introduced at a flow rate of 1.5 uL/min using a Harvard syringe pump and a 50 uL glass syringe. The desolvation of the electrospray droplets was aided by a flow of countercurrent gas at 1 L/min. Ions were accumulated for 1.0 sec in an intermediate hexapole ion storage region at 1.0×10^−5 mbar. Following transfer to the FT-ICR analysis cell, the image current was measured over a mass range of 500-4000 m/z. Typically, a total of 32 transients containing 512 kbytes were summed prior to Fourier transformation. […]
An aqueous solution containing 50 mM ammonium acetate buffer (pH 7.0), 33% isopropyl alcohol, 2-deoxystreptamine (100 μM), 16S RNA (2.5 μM) and a modified 16S RNA (2.5 μM) was prepared. […] The peaks were integrated and ion abundances determined for each of the separate runs. Fractions of 16S+2-DOS and 5IU1495+2-DOS complexes were determined and plotted according to relative energy as depicted in FIG. 6. […]

## N[C@@H]1C[C@H](N)[C@@H](O)C(O)[C@H]1O (some centres unmarked) [2-deoxystreptamine]
1 to 2 relative energy units (FIG. 6)
  Difference in dissociation rate (slope) between the 16S and 5IU1495 systems, first region: about 25%
2 to 4 relative energy units (FIG. 6)
  Dissociation rate (slope) of 16S versus 5IU1495 systems, higher energy region: substantially equal
